Data from patent publication US20220017871A1, “UNDIFFERENTIATED STATE-MAINTAINING CULTURE MEDIUM FOR PLURIPOTENT STEM CELLS” (Kanto Kagaku Kabushiki Kaisha, priority 2018, published 2022).

Legend:
[1] = tested on: Human iPS cell line 253G1; assay: Confirmation of cell morphology by phase-contrast microscopy; type: cell-based; settings: third day of culturing; additive in basal medium (albumin 1 g/100 mL; NAC 8.2 mg/100 mL); spindle = good condition, globular = bad
Protocol: (§1) Human iPS cell line 253G1 was washed with PBS, then treated with an equivalent mixture solution of TrypLE Select (ThermoScientific) and 0.5 mM EDTA at 37° C. for 5 minutes to be dispersed into single-cells, and collected.
The morphology of cells on the third day of culturing in the basal medium with no additive and in the albumin-added medium was observed by phase-contrast microscopy.
The morphology of cells on the third day of culturing in the control medium and in the N-acetyl-L-cysteine-added medium as a representative of 5 types of antioxidants was observed by phase-contrast microscopy.

[2] = tested on: Human iPS cell line 253G1; assay: Comparison of proliferating rate in media with each added component; type: cell-based; settings: 7 days culture; NAC 8.2 mg and/or PVA 0.25 g per 100 mL basal medium; basal medium only = 1; n=3
Protocol: To 100 mL of the basal medium, either only 8.2 mg of N-acetyl-L-cysteine was added, only 0.25 g of polyvinyl alcohol was added, or 8.2 mg of N-acetyl-L-cysteine and 0.25 g of polyvinyl alcohol were added.
as §1
The culture was carried out in the basal medium with no additive prepared as a control, and in a medium to which only N-acetyl-L-cysteine was added, in a medium to which only polyvinyl alcohol was added, or in a medium to which N-acetyl-L-cysteine and polyvinyl alcohol were added (n=3).

iPS cells = assay: Measurement of intracellular ROS (DCFH-DA staining, flow cytometer); type: cell-based, human; settings: versus medium with no additive (100%)
Protocol: In each of the basal medium with no additive and the albumin-added medium, cells were dispersed into single-cells, and after 1 hours, for each case, cells were fluorescently stained with DCFH-DA, and fluorescence intensity was measured using a flow cytometer.
Cells were cultured in the control media or in the medium to which the respective component had been added, then dispersed into single-cells. For each case, cells were fluorescently stained with DCFH-DA, and the fluorescence intensity was measured using a flow cytometer.

[3] = tested on: Human iPS cell line 253G1; assay: Confirming cell attachment (crystal violet staining); type: cell-based; settings: 7 days culture; 0.25 g polymer or 1 g albumin per 100 mL basal medium; iMatrix-511 coated 6-well plate; n=3
Protocol: as §1
The culture was carried out in the basal medium with no additive and an albumin-added medium prepared as controls, and in a medium to which polyvinyl alcohol and in a medium to which polyvinylpyrrolidone was added (n=3).
Each of the cultured cell was stained with crystal violet and the adherence of the cells was confirmed under phase-contrast microscopy.

[4] = Example 1, antioxidant added to 100 mL basal medium (NAC 163 mg, GSH 307 mg)

Compound | cell morphology [1] | increase in relative proliferating rate [2] | decrease in intracellular ROS level (iPS cells; [4]) | adherence of cells to culture container [3] | decrease in intracellular ROS level (iPS cells; Comparative Example 1, 1 g albumin per 100 mL basal medium, 1 hour after dispersion into single cells)
CC(=O)N[C@@H](CS)C(=O)O [N-acetyl-L-cysteine] | spindle shape | approximately 1.4 fold | approximately 50% |  | 
N[C@@H](CCC(=O)N[C@@H](CS)C(=O)NCC(=O)O)C(=O)O [reduced glutathione] |  |  | approximately 50% |  | 
albumin | spindle shape |  |  | stained cells were confirmed all over the culture container | approximately 60%
